Earlier results, collected in patent publication US20030065040A1, “Pharmaceutical compositions including sampatrilat dispersed in a lipoidic vehicle” (priority 2001, published 2003).
Like-named read-outs stand apart in the source and are kept apart here.

Assays:
[1] = man; reported to be as low as
[2] = dogs; reported to be as low as

oral bioavailability [1]: 2%
oral bioavailability [2]: 5%
Compound: CS(=O)(=O)N[C@@H](CCCCN)C(=O)NC[C@H](CC1(C(=O)N[C@@H](Cc2ccc(O)cc2)C(=O)O)CCCC1)C(=O)O [Sampatrilat, sampatrilat]
